Laboratory results as given in patent publication US11478550B2, “Biodegradable hydrogel and methods for use thereof” (International Business Machines Corporation, priority 2018, dated 2022).
Like-named read-outs stand apart in the source and are kept apart here.

Tests used:
[1] = test system: Human multiple myeloma (MM.1S) cells; assay: Cytotoxicity test (CellTiter 96 AQueous One); type: cell-based; details: 48 h, alone or combined with the hydrogels (FIG. 2)
Method: Human multiple myeloma (MM.1S) cells were seeded at a density of 10×10^3 cells per well onto a 96 well plate and incubated overnight at 37° C. On the day of treatment, the medium was removed and 90 μl of RPMI was added to each well. Following this, 10 μL of the hydrogels or micelles-containing hydrogels were added to the cells. The plate was then incubated for another 48 h at 37° C. Reagents from the CellTiter 96® AQueous One Solution Cell Proliferation Assay Kit (Promega, USA) and RPMI were then mixed at a volume ratio of 1:4 and 100 μL of this mixture was then added to each well and the cells were left to incubate in the dark at 37° C. for 2 h. Untreated cells were then used as the control. Subsequently, the absorbance at 490 nm was measured and the readings were then expressed as a percentage of the cell viability of the control.

[2] = test system: refractory and/or relapsed MM; details: single agent; cited from earlier work
[3] = cited from earlier work

SMILES: CC(C)C[C@H](NC(=O)[C@H](Cc1ccccc1)NC(=O)c1cnccn1)B(O)O [BTZ, bortezomib]
- effect on cell viability [1]: marked effect on cell viability
- 1-year overall survival rate [2]: 80%
- longer median time to progression compared to dexamethasone [2]: 78%
- time to reach mean maximum plasma concentration ([3]; intravenous bolus): 3 min
- time to reach mean maximum plasma concentration ([3]; subcutaneous administration): 120 min
